Reference: patent US20090082337A1, “Compositions Comprising Quinolone and Methods for Treating or Controlling Infections” (priority 2007, published 2009)
In brackets after ≈: the same amount, converted by molar mass. Where two headings read alike, the source gives them in different places.

What was measured:
Assay type in all cases: cell-based
[1] = tested on: Acinetobacter calcoaceticus (IFO 12552); experiment: In vitro anti-bacterial activity (MIC90), Gram-negative bacteria; conditions: IFO12552, Gram-negative reference strain
Method: (§1) In yet another aspect, said another quinolone has a MIC90 value for a Gram-negative bacterium that is lower than that of the fluoroquinolone having Formula I, II, III, IV, V, VI, VII, or VIII for the same bacterium, said fluoroquinolone being included in the composition. MIC90 is the minimum concentration of the active compound required to inhibit ninety percent of the growth of a specified pathogen, in μg/ml.
(§2) Anti-bacterial activity of the compound having Formula IV was tested against several Gram-negative reference bacteria strains and compared to the anti-bacterial activity of three commercially available antibiotics (nadifloxacin, ofloxacin, and sparfloxacin). The results are shown in Table 2 as MIC90 values (minimum concentration of the active compound required to inhibit ninety percent of the growth of a specified pathogen, in μg/ml).

[2] = tested on: Enterobacter aerogenes (IFO 13534); experiment: as above; conditions: Klebsiella aerogenes, IFO13534, Gram-negative reference strain
Method: as §1, §2

[3] = tested on: Escherichia coli (O-1); experiment: as above; conditions: Gram-negative reference strain
Method: as §1, §2

[4] = tested on: Klebsiella pneumoniae (IFO 13541); experiment: as above; conditions: IFO13541, Gram-negative reference strain
Method: as §1, §2

[5] = tested on: Proteus mirabilis (IFO 13300); experiment: as above; conditions: IFO13300, Gram-negative reference strain
Method: as §1, §2

[6] = tested on: Proteus rettgeri; experiment: as above; conditions: Providencia rettgeri, Gram-negative reference strain
Method: as §1, §2

[7] = tested on: Pseudomonas aeruginosa (ATCC 27853); experiment: as above; conditions: ATCC27853, Gram-negative reference strain
Method: as §1, §2

[8] = tested on: Pseudomonas aeruginosa (IFO 13736); experiment: as above; conditions: IFO13736, Gram-negative reference strain
Method: as §1, §2

[9] = tested on: Serratia marcenscens (NHL); experiment: as above; conditions: Gram-negative reference strain
Method: as §1, §2

[10] = tested on: Shigella flexneri (2b); experiment: as above; conditions: Gram-negative reference strain
Method: as §1, §2

[11] = tested on: Salmonella typhimurium (TD); experiment: as above; conditions: Salmonella enterica, Gram-negative reference strain
Method: Anti-bacterial activity of the compound having Formula IV was tested against several Gram-negative reference bacteria strains and compared to the anti-bacterial activity of three commercially available antibiotics (nadifloxacin, ofloxacin, and sparfloxacin).

[12] = tested on: Streptococcus faecalis (ATCC 29212); experiment: In vitro anti-bacterial activity (MIC90), Gram-positive bacteria; conditions: Enterococcus faecalis, ATCC29212, Gram-positive reference strain
Method: as §1, with “μg/ml. Anti-bacterial activity of the compound having Formula […] was tested against several Gram-positive reference bacteria strains and compared to the anti-bacterial activity of three commercially available antibiotics (nadifloxacin, ofloxacin, and sparfloxacin).” for “μg/ml.”

[13] = tested on: Streptococcus pneumoniae (IID 553); experiment: as above; conditions: IID553, Gram-positive reference strain
Method: as §1, with “μg/ml. Anti-bacterial activity of the compound having Formula […] was tested against several Gram-positive reference bacteria strains and compared to the anti-bacterial activity of three commercially available antibiotics (nadifloxacin, ofloxacin, and sparfloxacin).” for “μg/ml.”

[14] = tested on: Staphylococcus aureus (ATCC 33591); experiment: In vitro anti-bacterial activity (MIC90), methicillin-resistant Staphylococcus aureus isolates; conditions: ATCC33591; methicillin-resistant Staphylococcus aureus (ATCC 33591)
Method: as §1
(§3) Anti-bacterial activity of the compound having Formula IV was tested against some methicillin-resistant Staphylococcus aureus bacteria strains and compared to the anti-bacterial activity of three commercially available antibiotics (nadifloxacin, ofloxacin, and sparfloxacin).

[15] = tested on: Staphylococcus aureus (ATCC 33592); experiment: as above; conditions: ATCC33592; methicillin-resistant Staphylococcus aureus (ATCC 33592)
Method: as §1, §3

[16] = tested on: Staphylococcus aureus (ATCC 33593); experiment: as above; conditions: ATCC33593; methicillin-resistant Staphylococcus aureus (ATCC 33593)
Method: as §1, §3

[17] = tested on: Staphylococcus aureus (No. 395); experiment: as above; conditions: methicillin-resistant Staphylococcus aureus (No. 395)
Method: as §1, §3

[18] = tested on: Staphylococcus aureus (No. 415); experiment: as above; conditions: methicillin-resistant Staphylococcus aureus (No. 415)
Method: as §1, §3

[19] = tested on: Staphylococcus aureus (No. 419); experiment: as above; conditions: methicillin-resistant Staphylococcus aureus (No. 419)
Method: as §1, §3

[20] = tested on: Staphylococcus aureus (No. 420); experiment: as above; conditions: methicillin-resistant Staphylococcus aureus (No. 420)
Method: as §1, §3

[21] = tested on: Staphylococcus aureus (No. 421); experiment: as above; conditions: methicillin-resistant Staphylococcus aureus (No. 421)
Method: as §1, §3

[22] = tested on: Clostridium perfringens (KZ 210); experiment: microbe, parasite or virus in culture
[23] = tested on: Peptostreptococcus micros (GIFU 7824); experiment: In vitro anti-bacterial activity (MIC90), anaerobic bacteria; conditions: Parvimonas micra, anaerobic reference bacteria
[24] = tested on: Peptostreptococcus magnum (GAI 0664); experiment: as above; conditions: anaerobic reference bacteria
[25] = tested on: Propionibacterium acnes (ATCC 6919); experiment: as above; conditions: Cutibacterium acnes, ATCC6919, anaerobic reference bacteria
[26] = tested on: Propionibacterium acnes (ATCC 11828); experiment: as above; conditions: Cutibacterium acnes, ATCC11828, anaerobic reference bacteria
[27] = tested on: Bacteroides thetaiotaomicron (GAI 0659); experiment: as above
[28] = tested on: Bacteroides vulgatus (GAI 0673); experiment: as above; conditions: Phocaeicola vulgatus, anaerobic reference bacteria
[29] = tested on: Veillonella parvula (GAI 5602); experiment: as above; conditions: anaerobic reference bacteria

| SMILES | MIC90 [1] [µg/mL] | MIC90 [2] [µg/mL] | MIC90 [3] [µg/mL] | MIC90 [4] [µg/mL] | MIC90 [5] [µg/mL] | MIC90 [6] [µg/mL] | MIC90 [7] [µg/mL] | MIC90 [8] [µg/mL] | MIC90 [9] [µg/mL] | MIC90 [10] [µg/mL] | MIC90 [11] [µg/mL] | MIC90 [12] [µg/mL] | MIC90 [13] [µg/mL] | MIC90 [14] [µg/mL] | MIC90 [15] [µg/mL] | MIC90 [16] [µg/mL] | MIC90 [17] [µg/mL] | MIC90 [18] [µg/mL] | MIC90 [19] [µg/mL] | MIC90 [20] [µg/mL] | further results |
| --- | --- | --- | --- | --- | --- | --- | --- | --- | --- | --- | --- | --- | --- | --- | --- | --- | --- | --- | --- | --- | --- |
| N[C@@H]1CCCCN(c2c(F)cc3c(=O)c(C(=O)O)cn(C4CC4)c3c2Cl)C1 [Compound Having Formula IV] | 0.39 | 0.39 | 0.1 | 0.024 | 0.1 | 0.39 | 1.56 | 1.56 | 0.2 | 0.006 | 0.05 | 0.2 | 0.1 | 0.012 | 0.05 | 0.012 | 0.006 | 0.05 | 0.1 | 0.1 | MIC90 [21]: 0.2 µg/mL; MIC90 [22]: 0.2 µg/mL; MIC90 [23]: 0.2 µg/mL; MIC90 [24]: 0.05 µg/mL; MIC90 [25]: 0.2 µg/mL; MIC90 [26]: 0.39 µg/mL; MIC90 ([27]; Bacteroides thetaiotaomicron (GAI 0659), anaerobic reference bacteria, read-out: MIC90): 0.2 µg/mL; MIC90 [28]: 0.1 µg/mL; MIC90 [29]: 0.1 µg/mL |
| CC1CCc2c(N3CCC(O)CC3)c(F)cc3c(=O)c(C(=O)O)cn1c23 (centres unmarked) [Nadifloxacin, nadifloxacin] | 0.78 (≈ 2.16 µM) | 1.56 (≈ 4.33 µM) | 0.2 (≈ 0.555 µM) | 0.1 (≈ 0.277 µM) | 0.1 (≈ 0.277 µM) | 0.39 (≈ 1.08 µM) | 6.25 (≈ 17.3 µM) | 3.13 (≈ 8.69 µM) | 1.56 (≈ 4.33 µM) | 0.006 (≈ 0.0166 µM) | 0.2 (≈ 0.555 µM) | 0.78 (≈ 2.16 µM) | 0.78 (≈ 2.16 µM) | 0.006 (≈ 0.0166 µM) | 0.05 (≈ 0.139 µM) | 0.024 (≈ 0.0666 µM) | 0.024 (≈ 0.0666 µM) | 0.1 (≈ 0.277 µM) | 0.39 (≈ 1.08 µM) | 0.78 (≈ 2.16 µM) | MIC90 [21]: 0.78 µg/mL (≈ 2.16 µM); MIC90 [22]: 0.2 µg/mL (≈ 0.555 µM); MIC90 [23]: 0.39 µg/mL (≈ 1.08 µM); MIC90 [24]: 0.2 µg/mL (≈ 0.555 µM); MIC90 [25]: 0.2 µg/mL (≈ 0.555 µM); MIC90 [26]: 0.78 µg/mL (≈ 2.16 µM); MIC90 ([27]; Bacteroides thetaiotaomicron): 1.56 µg/mL (≈ 4.33 µM); MIC90 [28]: 0.78 µg/mL (≈ 2.16 µM); MIC90 [29]: 0.78 µg/mL (≈ 2.16 µM) |
| CC1COc2c(N3CCN(C)CC3)c(F)cc3c(=O)c(C(=O)O)cn1c23 (centres unmarked) [Ofloxacin, ofloxacin] | 0.39 (≈ 1.08 µM) | 0.2 (≈ 0.553 µM) | 0.05 (≈ 0.138 µM) | 0.024 (≈ 0.0664 µM) | 0.05 (≈ 0.138 µM) | 0.2 (≈ 0.553 µM) | 3.13 (≈ 8.66 µM) | 1.56 (≈ 4.32 µM) | 0.1 (≈ 0.277 µM) | 0.006 (≈ 0.0166 µM) | 0.05 (≈ 0.138 µM) | 1.56 (≈ 4.32 µM) | 1.56 (≈ 4.32 µM) | 0.05 (≈ 0.138 µM) | 0.39 (≈ 1.08 µM) | 0.2 (≈ 0.553 µM) | 0.2 (≈ 0.553 µM) | 0.78 (≈ 2.16 µM) | 3.13 (≈ 8.66 µM) | 1.56 (≈ 4.32 µM) | MIC90 [21]: 1.56 µg/mL (≈ 4.32 µM); MIC90 [22]: 0.78 µg/mL (≈ 2.16 µM); MIC90 [23]: 0.78 µg/mL (≈ 2.16 µM); MIC90 [24]: 0.39 µg/mL (≈ 1.08 µM); MIC90 [25]: 0.78 µg/mL (≈ 2.16 µM); MIC90 [26]: 1.56 µg/mL (≈ 4.32 µM); MIC90 ([27]; Bacteroides thetaiotaomicron): 3.13 µg/mL (≈ 8.66 µM); MIC90 [28]: 3.13 µg/mL (≈ 8.66 µM); MIC90 [29]: 0.39 µg/mL (≈ 1.08 µM) |
| C[C@@H]1CN(c2c(F)c(N)c3c(=O)c(C(=O)O)cn(C4CC4)c3c2F)C[C@H](C)N1 [Sparfloxacin, sparfloxacin] | 0.024 (≈ 0.0612 µM) | 0.1 (≈ 0.255 µM) | 0.012 (≈ 0.0306 µM) | 0.012 (≈ 0.0306 µM) | 0.1 (≈ 0.255 µM) | 0.2 (≈ 0.51 µM) | 0.78 (≈ 1.99 µM) | 0.78 (≈ 1.99 µM) | 0.2 (≈ 0.51 µM) | 0.006 (≈ 0.0153 µM) | 0.012 (≈ 0.0306 µM) | 0.39 (≈ 0.994 µM) | 0.39 (≈ 0.994 µM) | 0.024 (≈ 0.0612 µM) | 0.1 (≈ 0.255 µM) | 0.024 (≈ 0.0612 µM) | 0.05 (≈ 0.127 µM) | 0.2 (≈ 0.51 µM) | 1.56 (≈ 3.98 µM) | 0.78 (≈ 1.99 µM) | MIC90 [21]: 0.39 µg/mL (≈ 0.994 µM); MIC90 [22]: 0.39 µg/mL (≈ 0.994 µM); MIC90 [23]: 0.78 µg/mL (≈ 1.99 µM); MIC90 [24]: 0.1 µg/mL (≈ 0.255 µM); MIC90 [25]: 0.39 µg/mL (≈ 0.994 µM); MIC90 [26]: 0.78 µg/mL (≈ 1.99 µM); MIC90 ([27]; Bacteroides thetaiotaomicron): 0.78 µg/mL (≈ 1.99 µM); MIC90 [28]: 0.78 µg/mL (≈ 1.99 µM); MIC90 [29]: 0.2 µg/mL (≈ 0.51 µM) |
